Assay [1] concerns the target T1, Alpha-1A adrenergic receptor (Bos taurus, UniProt P18130).
T1 sequence (P18130 whole entry): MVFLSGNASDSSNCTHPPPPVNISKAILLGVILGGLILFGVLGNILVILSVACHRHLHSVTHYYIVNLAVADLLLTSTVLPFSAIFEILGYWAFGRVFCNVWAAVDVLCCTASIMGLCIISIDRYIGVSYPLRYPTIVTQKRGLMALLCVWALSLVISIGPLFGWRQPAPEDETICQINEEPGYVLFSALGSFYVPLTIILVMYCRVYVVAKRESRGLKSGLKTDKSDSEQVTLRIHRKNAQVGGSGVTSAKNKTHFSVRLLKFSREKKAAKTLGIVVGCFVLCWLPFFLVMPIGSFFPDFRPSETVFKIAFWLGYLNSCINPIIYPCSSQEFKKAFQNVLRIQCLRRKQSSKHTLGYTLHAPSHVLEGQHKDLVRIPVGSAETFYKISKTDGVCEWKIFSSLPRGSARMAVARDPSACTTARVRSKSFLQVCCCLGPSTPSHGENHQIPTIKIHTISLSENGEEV
In words: Compound was evaluated for binding affinity at bovine brain Alpha-1 adrenergic receptor in a filtration-based assay using [3H]prazosin as the radioligand.

The subject of a further assay is Canis familiaris. In words: Compound was evaluated for the intravenous dose required to prolong relative refractory period (RRP) 20 ms above baseline in chloralose anesthetized dogs using a paired pacing protocol. It is filed as functional. Particulars: Canis lupus familiaris.
A further assay is filed under the species Mustela putorius furo. The experiment in a line: Compound was evaluated for the molar concentration required to prolong effective refractory period (ERP) 25% above baseline in ferret isolated right ventricular papillary muscles using a paired pacing protocol. It is filed as functional, Muscle tissue.
In assay [2] the target is T1, Alpha-1A adrenergic receptor. In words: Compound was evaluated for binding affinity at bovine brain Alpha-1 adrenergic receptor determined in a filtration-based assay using [3H]prazosin as the radioligand.

pIC50: −log10 of the molar value.

Take `CS(=O)(=O)Nc1ccc2c(c1)C(=O)CC1(CCN(CCc3ccccn3)CC1)O2.Cl.O`: in assay [1], the pIC50 is 6.30. Moreover, the ED20 with Canis familiaris was determined as 10 µg/kg. The EC25 in the assay listed under Mustela putorius furo was found to be 33 nM.
As to `CS(=O)(=O)Nc1ccc2c(c1)C(=O)CC1(CCN(CCc3ccc4nonc4c3)CC1)O2.Cl`, the ED20 in the assay with Canis familiaris was 2.8 µg/kg. The EC25 in the assay filed under Mustela putorius furo came out at 13 nM.
Take `CS(=O)(=O)Nc1ccc(CCN2CCC3(CC2)CC(=O)c2cc(NS(C)(=O)=O)ccc2O3)cc1.Cl`: in assay [1], the pIC50 was 4.82. Moreover, the ED20 in the assay with Canis familiaris was found to be 3 µg/kg. In the assay listed under Mustela putorius furo, this molecule came in with an EC25 of 74 nM.
In turn, `CS(=O)(=O)Nc1ccc2c(c1)C(=O)CC1(CCN(CCc3ccc([N+](=O)[O-])cc3)CC1)O2.Cl` gave a pIC50 in assay [2] of 6.05. Also, in the assay listed under Mustela putorius furo, the EC25 came out at 5 nM.
With `Cc1cccc(CCN2CCC(C(=O)c3ccc(NS(C)(=O)=O)cc3)CC2)n1`, the ED20 in the assay with Canis familiaris was 17.4 µg/kg. The EC25 in the assay filed under Mustela putorius furo stood at 58 nM.
The matching figures for `CN(CCOc1ccc(NS(C)(=O)=O)cc1)CCc1ccc(NS(C)(=O)=O)cc1` [DOFETILIDE]: 5.2 µg/kg and 18 nM.
In assay [1], `CS(=O)(=O)Nc1ccc2c(c1)CCC1(CCN(CCc3ccc4nonc4c3)CC1)O2.Cl` gave a pIC50 of 5.52. This molecule also gave an EC25 in the assay filed under Mustela putorius furo of 54 nM.
On to `CS(=O)(=O)Nc1ccc2c(c1)C(=O)CC1(CCN(CCc3ccc(C#N)cc3)CC1)O2.Cl`, for which, in assay [1], the negative-log IC50 (pIC50) is 6.00. The molecule further returned an ED20 in the assay with Canis familiaris of 7 µg/kg. In addition, the EC25 in the assay listed under Mustela putorius furo was determined as 3 nM.
The matching figures for `CS(=O)(=O)Nc1ccc2c(c1)C(=O)CC1(CCN(CCc3ccccc3)CC1)O2.Cl`: 7.00, 5 µg/kg and 7 nM.
For `CS(=O)(=O)Nc1cccc2c1OC1(CCN(CCc3ccccn3)CC1)CC2=O.Cl.O`, the EC25 in the assay listed under Mustela putorius furo turned out to be 7400 nM.
`Cl.O=C1CC2(CCN(CCc3ccccn3)CC2)Oc2ccccc21` displayed an ED20 in the assay on Canis familiaris of 500 µg/kg. In the assay filed under Mustela putorius furo, this molecule yielded an EC25 of 160 nM.
`CS(=O)(=O)Nc1ccc2c(c1)C(O)CC1(CCN(CCc3ccc4nonc4c3)CC1)O2.Cl` (centres undefined) showed a pIC50 in assay [1] of 5.64. Besides, in the assay with Canis familiaris, the ED20 is 200 µg/kg. The molecule also returned an EC25 in the assay filed under Mustela putorius furo of 900 nM.
With `CS(=O)(=O)Nc1ccc2c(c1)OC1(CCN(CCc3ccccn3)CC1)CC2=O.Cl.O`, the EC25 in the assay listed under Mustela putorius furo was 6600 nM.

Broadly, the pIC50 is −log10 of the IC50, conventionally taken in molar units. One may read the EC25 as the concentration needed for an effect of 25%. Read a low EC25 as an effect from little substance.

These data come from ChEMBL document CHEMBL1125329, “4-Oxospiro[benzopyran-2,4'-piperidines] as class III antiarrhythmic agents. Pharmacological studies on 3,4-dihydro-1'-[2-(benzofurazan-5-yl)- ethyl]-6-methanesulfonamidospiro[(2H)-1-benzopyran-2,4'-piperidin]-4-on e (L-691,121)” (J Med Chem, 1992).
